Laboratory results as given in patent publication US20180072666A1, “ENOYL REDUCTASE INHIBITORS WITH ANTIBACTERIAL ACTIVITY” (Novalex Therapeutics, Inc., priority 2016, published 2018).
In brackets after ≈: the same amount, converted by molar mass. Like-named read-outs stand apart in the source and are kept apart here.

Tests used:
[1] = system: E. coli tolC- (strain BW25113, efflux pump mutant); test: microbe, parasite or virus in culture; format: cell-based; details: Escherichia coli, BW25113, read-out: MIC E. coli TolC-
[2] = target: T1, Staphylococcus aureus FabI (SaFabI) (Staphylococcus aureus, UniProt Q6GI75); test: biochemical; format: biochemical
T1 sequence (Q6GI75 1-256): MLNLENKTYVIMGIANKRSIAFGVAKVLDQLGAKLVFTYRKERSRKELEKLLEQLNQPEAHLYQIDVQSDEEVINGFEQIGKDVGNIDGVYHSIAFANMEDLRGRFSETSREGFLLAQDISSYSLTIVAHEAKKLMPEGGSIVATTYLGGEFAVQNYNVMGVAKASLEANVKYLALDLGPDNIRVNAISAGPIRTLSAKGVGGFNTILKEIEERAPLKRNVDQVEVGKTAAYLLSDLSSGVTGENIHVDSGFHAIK

[3] = target: Acinetobacter baumannii FabI (AbFabI) (Acinetobacter baumannii, UniProt A0ABX6CD96); test: biochemical; format: biochemical; details: read-out: Enzyme inhibition or IC50 with AbFabl
S. aureus strain RN4220 = test: microbe, parasite or virus in culture; format: cell-based; details: Staphylococcus aureus, RN4220, read-out: MIC S. aureus RN4220 WT
E. coli strain BW25113 = test: microbe, parasite or virus in culture; format: cell-based; details: Escherichia coli, BW25113, read-out: MIC E. coli BW25113 WT
[4] = system: F. tularensis (strain Utah); test: microbe, parasite or virus in culture; format: cell-based; details: Francisella tularensis, read-out: MIC F. tularensis strain Utah
S. aureus strain Newman = test: MIC determination, S. aureus Newman; format: cell-based; details: Staphylococcus aureus, read-out: MIC S. aureus Newman WT
[5] = 200 nM enzyme, 300 μM crotonyl-coenzymeA, 200 μM NADPH, pH 5.5, read-out: Enzyme inhibition or IC50 with SaFabl
[6] = TSB media, 37° C. overnight, first clear well

## CC(=O)Nc1ccc(/C=C/C(=O)N2CCC(c3ccccc3)C2)cn1 (centres unmarked)
[1]
  MIC: 12.5 µg/mL (≈ 37.3 µM)
[2]; [5]
  IC50: 1.2 µM
[3]; pH 5.5
  IC50: 0.47 µM
S. aureus strain RN4220
  MIC: > 200 µg/mL
E. coli strain BW25113
  MIC: > 200 µg/mL
[4]
  MIC: > 200 µg/mL

## COc1ccccc1C1CCN(C(=O)/C=C/c2ccc(NC(C)=O)nc2)C1 (centres unmarked)
[1]
  MIC: 0.75 µg/mL (≈ 2.05 µM)
[2]; [5]
  IC50: 3.5 µM
[3]; pH 5.5
  IC50: 0.42 µM
S. aureus strain RN4220
  MIC: 12.5 to 25 µg/mL (≈ 34.2 to 68.4 µM)
S. aureus strain Newman
  MIC: 12.5 to 25 µg/mL (≈ 34.2 to 68.4 µM)
E. coli strain BW25113
  MIC: > 200 µg/mL
[4]
  MIC: 12.5 µg/mL (≈ 34.2 µM)

## COc1ccccc1C1CCN(C(=O)Cc2ccccc2Cl)C1 (centres unmarked)
[1]
  MIC: > 200 µg/mL
[2]; [5]
  IC50: 0.5 µM
[3]
  IC50: 0.88 µM
S. aureus strain RN4220
  MIC: 12.5 to 25 µg/mL (≈ 37.9 to 75.8 µM)
[4]
  MIC: 50 µg/mL (≈ 152 µM)

## CC(=O)Nc1ccc(/C=C/C(=O)N2CCC(c3ccccn3)C2)cn1 (centres unmarked)
[1]
  MIC: 100 µg/mL (≈ 297 µM)
[2]; [5]
  IC50: 28.4 µM
[3]
  IC50: 5 µM
S. aureus strain RN4220
  MIC: > 100 µg/mL
E. coli strain BW25113
  MIC: > 100 µg/mL
[4]
  MIC: > 100 µg/mL

## CC(=O)Nc1ccc(/C=C/C(=O)N2CCC(c3ccc4c(c3)OCO4)C2)cn1 (centres unmarked)
[1]
  MIC: > 100 µg/mL
[2]; [5]
  IC50: 1.1 µM
[3]; pH 5.5
  IC50: 8.5 µM
S. aureus strain RN4220
  MIC: > 200 µg/mL
E. coli strain BW25113
  MIC: > 100 µg/mL
[4]
  MIC: > 200 µg/mL

## CC(=O)Nc1ccc(/C=C/C(=O)N2CCC(c3nccs3)C2)cn1 (centres unmarked)
[1]
  MIC: > 100 µg/mL
[2]; [5]
  IC50: 4.5 µM
[3]
  IC50: 10 to 20 µM
S. aureus strain RN4220
  MIC: > 100 µg/mL
E. coli strain BW25113
  MIC: > 100 µg/mL
[4]
  MIC: > 100 µg/mL

## O=C(Cc1ccccc1Cl)N1CCC(c2nccs2)C1 (centres unmarked)
[1]
  MIC: > 100 µg/mL
[2]; [5]
  IC50: 6 µM
[3]
  IC50: 14 µM
S. aureus strain RN4220
  MIC: 50 µg/mL (≈ 163 µM)
[4]
  MIC: 200 µg/mL (≈ 652 µM)

## O=C(Cc1ccccc1Cl)N1CCC(c2ccccc2)C1 (centres unmarked)
[2]; [5]
  IC50: 10.7 µM
[3]; pH 5.5
  IC50: 3.1 µM
S. aureus strain RN4220
  MIC: 12.5 µg/mL (≈ 41.7 µM)
S. aureus strain Newman
  MIC: 12.5 to 25 µg/mL (≈ 41.7 to 83.4 µM)
E. coli strain BW25113
  MIC: > 200 µg/mL
[4]
  MIC: 25 µg/mL (≈ 83.4 µM)

## O=C(Cc1ccccc1Cl)N1CCC(c2ccc3c(c2)OCO3)C1 (centres unmarked)
[2]; [5]
  IC50: 2.5 µM
[3]
  IC50: 3.7 µM
S. aureus strain RN4220
  MIC: 12.5 µg/mL (≈ 36.4 µM)
S. aureus strain Newman
  MIC: 6.25 to 12.5 µg/mL (≈ 18.2 to 36.4 µM)
E. coli strain BW25113
  MIC: > 200 µg/mL
[4]
  MIC: 25 µg/mL (≈ 72.7 µM)

## O=C(Cc1ccccc1Cl)N1CCC(c2ccccn2)C1 (centres unmarked)
[1]
  MIC: > 200 µg/mL
[2]; [5]
  IC50: 18.4 µM
[3]; pH 5.5
  IC50: 30.7 µM
S. aureus strain RN4220
  MIC: 100 µg/mL (≈ 332 µM)
[4]
  MIC: 200 µg/mL (≈ 665 µM)

## CC(=O)Nc1ccc(CC(=O)N2CCC(c3ccccc3)C2)cc1 (centres unmarked)
[1]
  MIC: 200 µg/mL (≈ 620 µM)
[3]
  IC50: > 100 µM
S. aureus strain RN4220
  MIC: > 200 µg/mL
[4]
  MIC: 200 µg/mL (≈ 620 µM)

## COc1ccccc1C1CCN(C(=O)Cc2ccc(NC(C)=O)cc2)C1 (centres unmarked)
[1]
  MIC: > 200 µg/mL
[3]
  IC50: > 100 µM
S. aureus strain RN4220
  MIC: > 200 µg/mL
[4]
  MIC: > 200 µg/mL

## CC(=O)Nc1ccc(CC(=O)N2CCC(c3ccc4c(c3)OCO4)C2)cc1 (centres unmarked)
[1]
  MIC: > 200 µg/mL
[3]
  IC50: > 100 µM
S. aureus strain RN4220
  MIC: > 200 µg/mL
[4]
  MIC: > 200 µg/mL

## COc1ccc(C2CCN(C(=O)Cc3ccc(NC(C)=O)cc3)C2)cc1 (centres unmarked)
[1]
  MIC: > 200 µg/mL
[3]
  IC50: > 100 µM
S. aureus strain RN4220
  MIC: > 200 µg/mL
[4]
  MIC: > 200 µg/mL

## COc1ccc(C2CCN(C(=O)/C=C/c3ccc(NC(C)=O)nc3)C2)cc1 (centres unmarked)
[1]
  MIC: > 200 µg/mL
[2]
  IC50: 3.55 µM
[3]
  IC50: > 100 µM
S. aureus strain RN4220
  MIC: > 200 µg/mL
[4]
  MIC: > 200 µg/mL

## CC(=O)Nc1ccc(CC(=O)N2CCC(c3nccs3)C2)cc1 (centres unmarked)
[1]
  MIC: > 200 µg/mL
[3]
  IC50: > 100 µM
S. aureus strain RN4220
  MIC: > 200 µg/mL
[4]
  MIC: > 200 µg/mL

## COc1ccc(C2CCN(C(=O)Cc3ccccc3Cl)C2)cc1 (centres unmarked)
[1]
  MIC: 100 µg/mL (≈ 303 µM)
[2]; [5]
  IC50: 12.5 µM
S. aureus strain RN4220
  MIC: 100 µg/mL (≈ 303 µM)
[4]
  MIC: 12.5 µg/mL (≈ 37.9 µM)

## CC(C)S(=O)(=O)c1ccc(CC(=O)N2CCC(c3ccc4c(c3)OCO4)C2)cc1 (centres unmarked)
[1]
  MIC: > 200 µg/mL
[3]
  IC50: > 100 µM
S. aureus strain RN4220
  MIC: > 200 µg/mL
[4]
  MIC: 100 µg/mL (≈ 241 µM)

## O=C(Cc1c(F)cccc1Cl)N1CCC(c2ccc3c(c2)OCO3)C1 (centres unmarked)
[1]
  MIC: > 200 µg/mL
[2]; [5]
  IC50: 1.8 µM
[3]
  IC50: > 100 µM
S. aureus strain RN4220
  MIC: 25 µg/mL (≈ 69.1 µM)
[4]
  MIC: 25 µg/mL (≈ 69.1 µM)

## O=C(Cc1ccccc1F)N1CCC(c2ccccc2)C1 (centres unmarked)
[1]
  MIC: > 200 µg/mL
[2]; [5]
  IC50: 5 µM
[3]
  IC50: 2.5 µM
S. aureus strain RN4220
  MIC: 50 µg/mL (≈ 176 µM)
S. aureus strain Newman; [6]
  MIC: 50 to 100 µg/mL (≈ 176 to 353 µM)
[4]
  MIC: 50 µg/mL (≈ 176 µM)

## O=C(Cc1c(F)cccc1F)N1CCC(c2ccccc2)C1 (centres unmarked)
[1]
  MIC: > 200 µg/mL
[2]; [5]
  IC50: 1.9 µM
[3]
  IC50: 6.9 µM
S. aureus strain RN4220
  MIC: 50 µg/mL (≈ 166 µM)
S. aureus strain Newman; [6]
  MIC: 50 to 100 µg/mL (≈ 166 to 332 µM)
[4]
  MIC: 50 µg/mL (≈ 166 µM)

## O=C(Cc1cccc(F)c1F)N1CCC(c2ccccc2)C1 (centres unmarked)
[1]
  MIC: > 200 µg/mL
[2]; [5]
  IC50: 7.3 µM
[3]
  IC50: 9.3 µM
S. aureus strain RN4220
  MIC: 50 µg/mL (≈ 166 µM)
S. aureus strain Newman; [6]
  MIC: 50 to 100 µg/mL (≈ 166 to 332 µM)
[4]
  MIC: 25 to 50 µg/mL (≈ 83 to 166 µM)

## COc1ccccc1C1CCN(C(=O)/C=C/c2ccc(NC(C)=O)cc2)C1 (centres unmarked)
[1]
  MIC: > 200 µg/mL
S. aureus strain RN4220
  MIC: > 200 µg/mL
[4]
  MIC: > 200 µg/mL

## COc1ccccc1C1CCN(C(=O)Cc2ccccc2F)C1 (centres unmarked)
[1]
  MIC: > 200 µg/mL
[2]; [5]
  IC50: 4.6 µM
[3]
  IC50: 1.9 µM
S. aureus strain RN4220
  MIC: 50 to 100 µg/mL (≈ 160 to 319 µM)
S. aureus strain Newman; [6]
  MIC: 50 to 100 µg/mL (≈ 160 to 319 µM)
[4]
  MIC: 50 to 100 µg/mL (≈ 160 to 319 µM)

## COc1ccccc1C1CCN(C(=O)Cc2c(F)cccc2F)C1 (centres unmarked)
[1]
  MIC: > 200 µg/mL
[2]; [5]
  IC50: 5.7 µM
[3]
  IC50: 1.6 µM
S. aureus strain RN4220
  MIC: 50 to 100 µg/mL (≈ 151 to 302 µM)
S. aureus strain Newman; [6]
  MIC: 50 to 100 µg/mL (≈ 151 to 302 µM)
[4]
  MIC: 50 to 100 µg/mL (≈ 151 to 302 µM)

## COc1ccccc1C1CCN(C(=O)Cc2cccc(F)c2F)C1 (centres unmarked)
[1]
  MIC: > 200 µg/mL
[2]; [5]
  IC50: 3 µM
[3]
  IC50: 7.4 µM
S. aureus strain RN4220
  MIC: 100 µg/mL (≈ 302 µM)
[4]
  MIC: 50 µg/mL (≈ 151 µM)

## O=C(Cc1ccccc1F)N1CCC(c2ccc3c(c2)OCO3)C1 (centres unmarked)
[1]
  MIC: > 200 µg/mL
[2]; [5]
  IC50: 2.7 µM
[3]; pH 5.5
  IC50: 32 µM
S. aureus strain RN4220
  MIC: > 200 µg/mL
[4]
  MIC: 25 to 50 µg/mL (≈ 76.4 to 153 µM)

## O=C(Cc1c(F)cccc1F)N1CCC(c2ccc3c(c2)OCO3)C1 (centres unmarked)
[1]
  MIC: > 200 µg/mL
[2]; [5]
  IC50: 2.3 µM
[3]; pH 5.5
  IC50: 54 µM
S. aureus strain RN4220
  MIC: > 200 µg/mL
[4]
  MIC: > 200 µg/mL

## O=C(Cc1cccc(F)c1F)N1CCC(c2ccc3c(c2)OCO3)C1 (centres unmarked)
[1]
  MIC: > 200 µg/mL
[2]; [5]
  IC50: 5.5 µM
[3]; pH 5.5
  IC50: 13.7 µM
S. aureus strain RN4220
  MIC: 100 µg/mL (≈ 290 µM)
[4]
  MIC: 25 µg/mL (≈ 72.4 µM)
